Test results published in patent US8575125B2, “Selective inhibitors of CB2 receptor expression and/or activity for the treatment of obesity and obesity-related disorders” (Institut National de la Sante et de la Recherche Medicale …, priority 2007, dated 2013).

Assays:
ob/ob mice = assay: Impact of CB2 antagonist on epididymal fat inflammatory gene expression in obese ob/ob mice (quantitative RT-PCR); type: in vivo, mouse; details: 1 mg/kg daily intraperitoneal over 17 days, six week-old ob/ob mice
Protocol: Animals and Experimental Design: Experimental protocols were conducted in accordance with French government policies (Services véterinaires de la Santé et de la production animale, Ministère français de l'Agriculture). Animals were housed under 12 hours of light/12 hours of dark cycle, in a temperature-controlled environment. The impact of the CB2 antagonist AM630 was evaluated in 6 week-old male obese Lep^Ob/Lep^Ob male mice (ob/ob) and lean Lep^Ob+/Lep^Ob counterparts (ob+/ob). Mice received an 17 day-course of daily intraperitoneal injection of 1 mg/kg AM630 (n=10 ob/ob and n=5 ob+/ob) or vehicle (n=8 ob/ob and n=5 ob+/ob). AM630 (Tocris) was freshly dissolved in a vehicle solution containing 1 drop of Tween 80 in 0.1 ml dimethylsulfoxide (DMSO), sonicated, and further diluted 50 times in NaCl 9‰. Body weight and food intake were measured daily. Mice were sacrificed after overnight fasting. White epididymal adipose tissue was removed, weighed and either fixed in buffered formalin, or snap frozen in liquid nitrogen. All samples were stored at −80° C. until use.
RNA preparation and RT-PCR: Total RNA was extracted from mice epididymal fat using RNeasy® Lipid Tissue Mini kit (QIAGEN). Quantitative RT-PCR was carried out on a Light Cycler (Roche Diagnostics), as previously described.
The PCR amplified products were analyzed on a 2% agarose gel, and sequenced.

[1] = test system: overweight and obese patients; details: 4 clinical studies, more than 6000 overweight and obese patients; cited from earlier work

| Structure (SMILES) | fat inflammatory response (ob/ob mice; epididymal fat, vs vehicle) | F4/80 mRNA expression in epididymal fat (ob/ob mice; vs vehicle (FIG. 16, p<0.05)) | MCP-1 mRNA expression in epididymal fat (ob/ob mice; vs vehicle (FIG. 16, p<0.05)) | TNF-alpha mRNA expression in epididymal fat (ob/ob mice; vs vehicle (FIG. 16, p<0.05)) | efficacy with regard to weight loss and reduction of the associated cardiometabolic risks [1] |
| --- | --- | --- | --- | --- | --- |
| COc1ccc(C(=O)c2c(C)n(CCN3CCOCC3)c3cc(I)ccc23)cc1 [AM 630] | reduced | lesser induction | lesser induction | lesser induction |  |
| Cc1c(C(=O)NN2CCCCC2)nn(-c2ccc(Cl)cc2Cl)c1-c1ccc(Cl)cc1 [rimonabant, Rimonabant] |  |  |  |  | consistent efficacy |
